Experimental data as given in patent US11345681B1, “Inhibitors of fibroblast growth factor receptor kinases” (Kinnate Biopharma Inc., priority 2020, dated 2022).

Each compound was assayed against Wild type FGFR2 (Homo sapiens (Human), UniProt P21802) (assay: FGFR2 kinase assay (fluorescence-based microfluidic mobility shift assay)). Settings: wild type FGFR2 0.06 nM, 100 μM ATP, 80 minutes at room temperature; class symbols.
Type: biochemical

Sequence of Wild type FGFR2 (P21802 22-821): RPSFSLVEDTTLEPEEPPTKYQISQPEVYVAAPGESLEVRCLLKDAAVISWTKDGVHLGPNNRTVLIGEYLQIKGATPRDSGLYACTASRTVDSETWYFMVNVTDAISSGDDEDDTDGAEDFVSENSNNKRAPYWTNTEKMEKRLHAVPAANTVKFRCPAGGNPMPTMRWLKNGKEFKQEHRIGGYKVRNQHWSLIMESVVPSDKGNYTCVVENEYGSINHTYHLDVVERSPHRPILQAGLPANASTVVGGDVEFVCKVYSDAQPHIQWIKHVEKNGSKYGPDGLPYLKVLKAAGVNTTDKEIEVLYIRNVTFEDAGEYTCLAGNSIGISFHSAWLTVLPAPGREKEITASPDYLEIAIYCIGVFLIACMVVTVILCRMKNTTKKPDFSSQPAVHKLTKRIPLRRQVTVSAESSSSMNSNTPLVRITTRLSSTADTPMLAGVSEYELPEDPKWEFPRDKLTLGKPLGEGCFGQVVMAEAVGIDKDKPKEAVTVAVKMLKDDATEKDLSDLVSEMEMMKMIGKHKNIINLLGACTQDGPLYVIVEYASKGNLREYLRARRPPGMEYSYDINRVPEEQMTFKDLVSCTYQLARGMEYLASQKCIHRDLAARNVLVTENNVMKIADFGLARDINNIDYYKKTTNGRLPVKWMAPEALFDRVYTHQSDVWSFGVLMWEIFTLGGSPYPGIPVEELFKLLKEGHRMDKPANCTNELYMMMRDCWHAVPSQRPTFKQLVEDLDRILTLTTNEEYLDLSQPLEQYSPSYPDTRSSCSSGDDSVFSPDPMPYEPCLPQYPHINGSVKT

SMILES	IC50
C=CC(=O)N1C[C@@H](n2nc(C#Cc3ccc4nccnc4c3)c(C(N)=O)c2NC)C[C@@H]1COC [Example 64, 1-[(3S,5R)-5-(Methoxymethyl)-1-(prop-2-enoyl)pyrrolidin-3-yl]-5-(methylamino)-3-[2-(quinoxalin-6-yl)ethynyl] pyrazole-4-carboxamide]	≤ 100 nM
C=CC(=O)N1C[C@@H](n2nc(C#Cc3ccc4cc(C)cnc4c3)c(C(N)=O)c2NC)C[C@@H]1COC [Example 65, 1-((3S,5R)-1-Acryloyl-5-(methoxymethyl)pyrrolidin-3-yl)-5-(methylamino)-3-((3-methylquinolin-7-yl)ethynyl)-1H-pyrazole-4-carboxamide]	≤ 100 nM
C=CC(=O)N1C[C@@H](n2nc(C#Cc3ccc4ccnn4c3)c(C(N)=O)c2NC)C[C@@H]1COC [Example 67, 1-[(3S,5R)-5-(Methoxymethyl)-1-(prop-2-enoyl)pyrrolidin-3-yl]-5-(methylamino)-3-(2-[pyrazolo[1,5-a]pyridin-6-yl]ethynyl)pyrazole-4-carboxamide]	≤ 100 nM
C=CC(=O)N1C[C@@H](n2nc(C#Cc3ccc4c(ncn4CC)c3F)c(C(N)=O)c2NC)C[C@@H]1COC [Example 68, 1-((3S,5R)-1-Acryloyl-5-(methoxymethyl)pyrrolidin-3-yl)-3-((1-ethyl-4-fluoro-1H-benzo[d]imidazol-5-yl)ethynyl)-5-(methylamino)-1H-pyrazole-4-carboxamide]	≤ 100 nM
C=CC(=O)N1C[C@@H](n2nc(C#Cc3ccc4nc(C)cnc4c3)c(C(N)=O)c2NC)C[C@@H]1COC [Example 69, 1-((3S,5R)-1-Acryloyl-5-(methoxymethyl)pyrrolidin-3-yl)-5-(methylamino)-3-((2-methylquinoxalin-6-yl)ethynyl)-1H-pyrazole-4-carboxamide]	≤ 100 nM
C=CC(=O)N1C[C@@H](n2nc(C#Cc3ccc4c(c3)ncn4C(F)F)c(C(N)=O)c2NC)C[C@@H]1COC [Example 70, 3-[2-[1-(Difluoromethyl)-1,3-benzodiazol-5-yl]ethynyl]-1-[(3S,5R)-5-(methoxymethyl)-1-(prop-2-enoyl)pyrrolidin-3-yl]-5-(methylamino)pyrazole-4-carboxamide]	≤ 100 nM
C=CC(=O)N1C[C@@H](n2nc(C#Cc3ccc4c(ncn4C)c3F)c(C(N)=O)c2NC)C[C@@H]1COC [Example 71, 1-((3S,5R)-1-Acryloyl-5-(methoxymethyl)pyrrolidin-3-yl)-3-((4-fluoro-1-methyl-1H-benzo[d]imidazol-5-yl)ethynyl)-5-(methylamino)-1H-pyrazole-4-carboxamide]	≤ 100 nM
C=CC(=O)N1C[C@@H](n2nc(C#Cc3ccc4ncc(C)nc4c3)c(C(N)=O)c2NC)C[C@@H]1COC [Example 72, 1-((3S,5R)-1-Acryloyl-5-(methoxymethyl)pyrrolidin-3-yl)-5-(methylamino)-3-((3-methylquinoxalin-6-yl)ethynyl)-1H-pyrazole-4-carboxamide]	≤ 100 nM
C=CC(=O)N1C[C@@H](n2nc(C#Cc3ccc4ncn(C(F)F)c4c3)c(C(N)=O)c2NC)C[C@@H]1COC [Example 73, 3-[2-[3-(Difluoromethyl)-1,3-benzodiazol-5-yl]ethynyl]-1-[(3S,5R)-5-(methoxymethyl)-1-(prop-2-enoyl)pyrrolidin-3-yl]-5-(methylamino)pyrazole-4-carboxamide]	≤ 100 nM
C=CC(=O)N1C[C@@H](n2nc(C#Cc3ccc4c(C)ccnc4c3)c(C(N)=O)c2NC)C[C@@H]1COC [Example 74, 1-[(3S,5R)-5-(Methoxymethyl)-1-(prop-2-enoyl)pyrrolidin-3-yl]-5-(methylamino)-3-[2-(4-methylquinolin-7-yl)ethynyl]pyrazole-4-carboxamide]	≤ 100 nM
C=CC(=O)N1C[C@@H](n2nc(C#Cc3ccn4c(C)cnc4c3)c(C(N)=O)c2NC)C[C@@H]1COC [Example 75, 1-[(3S,5R)-5-(Methoxymethyl)-1-(prop-2-enoyl)pyrrolidin-3-yl]-5-(methylamino)-3-(2-[3-methylimidazo[1,2-a]pyridin-7-yl]ethynyl)pyrazole-4-carboxamide]	≤ 100 nM
C=CC(=O)N1C[C@@H](n2nc(C#Cc3cc4c(cc3F)ncn4C(F)F)c(C(N)=O)c2NC)C[C@@H]1COC [Example 76, 3-[2-[3-(Difluoromethyl)-6-fluoro-1,3-benzodiazol-5-yl]ethynyl]-1-[(3S,5R)-5-(methoxymethyl)-1-(prop-2-enoyl)pyrrolidin-3-yl]-5-(methylamino)pyrazole-4-carboxamide]	≤ 100 nM
C=CC(=O)N1C[C@@H](n2nc(C#Cc3cc4ncn(C(F)F)c4cc3F)c(C(N)=O)c2NC)C[C@@H]1COC [Example 77, 3-[2-[1-(Difluoromethyl)-6-fluoro-1,3-benzodiazol-5-yl]ethynyl]-1-[(3S,5R)-5-(methoxymethyl)-1-(prop-2-enoyl)pyrrolidin-3-yl]-5-(methylamino)pyrazole-4-carboxamide]	≤ 100 nM
C=CC(=O)N1C[C@@H](n2nc(C#Cc3cc4ncn(C)c4cc3F)c(C(N)=O)c2NC)C[C@@H]1COC(F)(F)F [Example 79, 3-[2-(6-Fluoro-1-methyl-1,3-benzodiazol-5-yl)ethynyl]-5-(methylamino)-1-[(3S,5R)-1-(prop-2-enoyl)-5-[(trifluoromethoxy)methyl]pyrrolidin-3-y]pyrazole-4-carboxamide]	≤ 100 nM
C=CC(=O)N1C[C@@H](n2nc(C#Cc3cc4ncn(CC)c4cc3F)c(C(N)=O)c2NC)C[C@@H]1COC(F)(F)F [Example 80, 3-[2-(1-Ethyl-6-fluoro-1,3-benzodiazol-5-yl)ethynyl]-5-(methylamino)-1-[(3S,5R)-1-(prop-2-enoyl)-5-[(trifluoromethoxy)methyl]pyrrolidin-3-yl]pyrazole-4-carboxamide]	≤ 100 nM
C=CC(=O)N1C[C@@H](n2nc(C#Cc3cc4ncn(C(F)F)c4cc3F)c(C(N)=O)c2NC)C[C@@H]1COC(F)(F)F [Example 81, 3-[2-[1-(Difluoromethyl)-6-fluoro-1,3-benzodiazol-5-yl]ethynyl]-5-(methylamino)-1-[(3S,5R)-1-(prop-2-enoyl)-5-[(trifluoromethoxy)methyl]pyrrolidin-3-yl]pyrazole-4-carboxamide]	≤ 100 nM
C=CC(=O)N1C[C@@H](n2nc(C#Cc3cc4nc(C)n(C)c4cc3Cl)c(C(N)=O)c2NC)C[C@@H]1COC [Example 82, 3-[2-(6-Chloro-1,2-dimethyl-1,3-benzodiazol-5-yl)ethynyl]-1-[(3S,5R)-5-(methoxymethyl)-1-(prop-2-enoyl)pyrrolidin-3-yl]-5-(methylamino)pyrazole-4-carboxamide]	≤ 100 nM
C=CC(=O)N1C[C@@H](n2nc(C#Cc3ccc4ccc(C)nc4c3)c(C(N)=O)c2NC)C[C@@H]1COC [Example 83, 1-[(3S,5R)-5-(Methoxymethyl)-1-(prop-2-enoyl)pyrrolidin-3-yl]-5-(methylamino)-3-[2-(2-methylquinolin-7-yl)ethynyl]pyrazole-4-carboxamide]	≤ 100 nM
C=CC(=O)N1C[C@@H](n2nc(C#Cc3c(F)cc4c(ncn4C)c3F)c(C(N)=O)c2NC)C[C@@H]1COC(F)(F)F [Example 84]	≤ 100 nM
C=CC(=O)N1C[C@@H](n2nc(C#Cc3c(F)cc4c(ncn4CC)c3F)c(C(N)=O)c2NC)C[C@@H]1COC(F)(F)F [Example 85, 3-[2-(1-Ethyl-4,6-difluoro-1,3-benzodiazol-5-yl)ethynyl]-5-(methylamino)-1-[(3S,5R)-1-(prop-2-enoyl)-5-[(trifluoromethoxy)methyl]pyrrolidin-3-yl]pyrazole-4-carboxamide]	≤ 100 nM
C=CC(=O)N1C[C@@H](n2nc(C#Cc3cc4nc[nH]c4cc3F)c(C(N)=O)c2NC)C[C@@H]1COC(F)(F)F [Example 86, 3-[2-(6-Fluoro-1H-1,3-benzodiazol-5-yl)ethynyl]-5-(methylamino)-1-[(3S,5R)-1-(prop-2-enoyl)-5-[(trifluoromethoxy)methyl]pyrrolidin-3-yl]pyrazole-4-carboxamide]	≤ 100 nM
C=CC(=O)N1C[C@@H](n2nc(C#Cc3cc4nc(C)[nH]c4cc3Cl)c(C(N)=O)c2NC)C[C@@H]1COC(F)(F)F [Example 87, 3-[2-(6-Chloro-2-methyl-1H-1,3-benzodiazol-5-yl)ethynyl]-5-(methylamino)-1-[(3S,5R)-1-(prop-2-enoyl)-5-[(trifluoromethoxy)methyl]pyrrolidin-3-yl]pyrazole-4-carboxamide]	≤ 100 nM
C=CC(=O)N1C[C@@H](n2nc(C#Cc3cc4ncn(C)c4cc3Cl)c(C(N)=O)c2NC)C[C@@H]1COC [Example 88, 3-[2-(6-Chloro-1-methyl-1,3-benzodiazol-5-yl)ethynyl]-1-[(3S,5R)-5-(methoxymethyl)-1-(prop-2-enoyl)pyrrolidin-3-yl]-5-(methylamino)pyrazole-4-carboxamide]	≤ 100 nM
C=CC(=O)N1C[C@@H](n2nc(C#Cc3cc4ncn(CC)c4cc3Cl)c(C(N)=O)c2NC)C[C@@H]1COC [Example 89, 3-[2-(6-Chloro-1-ethyl-1,3-benzodiazol-5-yl)ethynyl]-1-[(3S,5R)-5-(methoxymethyl)-1-(prop-2-enoyl)pyrrolidin-3-yl]-5-(methylamino)pyrazole-4-carboxamide]	≤ 100 nM
C=CC(=O)N1C[C@@H](n2nc(C#Cc3cc4nc[nH]c4cc3F)c(C(N)=O)c2NC)C[C@@H]1COC [Example 90, 3-[2-(6-Fluoro-1H-1,3-benzodiazol-5-yl)ethynyl]-1-[(3S,5R)-5-(methoxymethyl)-1-(prop-2-enoyl)pyrrolidin-3-yl]-5-(methylamino)pyrazole-4-carboxamide]	≤ 100 nM
C=CC(=O)N1C[C@@H](n2nc(C#Cc3cc4nc(C)[nH]c4cc3F)c(C(N)=O)c2NC)C[C@@H]1COC [Example 91, 3-[2-(6-Fluoro-2-methyl-1H-1,3-benzodiazol-5-yl)ethynyl]-1-[(3S,5R)-5-(methoxymethyl)-1-(prop-2-enoyl)pyrrolidin-3-yl]-5-(methylamino)pyrazole-4-carboxamide]	≤ 100 nM
C=CC(=O)N1C[C@@H](n2nc(C#Cc3cc4nc[nH]c4cc3Cl)c(C(N)=O)c2NC)C[C@@H]1COC [Example 92, 3-[2-(6-Chloro-1H-1,3-benzodiazol-5-yl)ethynyl]-1-[(3S,5R)-5-(methoxymethyl)-1-(prop-2-enoyl)pyrrolidin-3-yl]-5-(methylamino)pyrazole-4-carboxamide]	≤ 100 nM
